From ChEMBL document CHEMBL5131422, “Neuroprotective evaluation of novel substituted 1,3,4-oxadiazole and aroylhydrazone derivatives” (Bioorg Med Chem Lett, 2022)

What was measured:
Brain [1] = test: Neuroprotective activity against 6-OHDA-induced oxidative stress in rat brain synaptosomes assessed as GSH level at 40 uM relative to control; format: functional, subcellular; conditions: Synaptosome
[2] = Toxicity in rat brain synaptosomes assessed as effect on reduced glutathione level at 40 uM measured after 1 hr relative to control; format: subcellular, Synaptosome; conditions: in vitro
Brain [3] = test: Neuroprotective activity against 6-OHDA-induced oxidative stress in rat brain synaptosomes assessed as cell viability at 40 uM by MTT assay relative to control; format: functional, subcellular; conditions: Synaptosome
[4] = Toxicity in rat brain synaptosomes assessed as reduction in cell viability at 40 uM measured after 1 hr by MTT assay relative to control; format: subcellular, Synaptosome
[5] = molecular target: T1, Amine oxidase [flavin-containing] A (Homo sapiens, UniProt P21397); test: Inhibition of MAOA (unknown origin)
T1 sequence (P21397 whole entry): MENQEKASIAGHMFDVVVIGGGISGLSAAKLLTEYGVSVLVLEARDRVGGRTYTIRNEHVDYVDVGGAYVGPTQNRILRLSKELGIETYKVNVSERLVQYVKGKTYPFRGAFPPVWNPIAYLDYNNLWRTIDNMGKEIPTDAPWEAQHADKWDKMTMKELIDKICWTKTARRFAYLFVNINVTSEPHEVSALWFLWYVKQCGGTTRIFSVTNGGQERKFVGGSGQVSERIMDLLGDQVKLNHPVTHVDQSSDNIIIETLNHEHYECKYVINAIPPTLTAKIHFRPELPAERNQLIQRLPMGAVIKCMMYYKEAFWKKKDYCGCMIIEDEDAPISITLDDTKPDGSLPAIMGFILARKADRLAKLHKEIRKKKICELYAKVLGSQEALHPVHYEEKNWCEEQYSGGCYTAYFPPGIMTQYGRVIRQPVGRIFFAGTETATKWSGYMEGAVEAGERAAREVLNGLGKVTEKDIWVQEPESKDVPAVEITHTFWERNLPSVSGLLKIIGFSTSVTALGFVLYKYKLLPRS

## COc1ccc2[nH]cc(/C=N\NC(=O)c3ccc(Cl)cc3)c2c1
Brain [1]
  Activity: 60%
[2]
  Activity: 25%
Brain [3]
  Activity: 67%
[4]
  Activity: 20%

## COc1ccc2[nH]cc(/C=N\NC(=O)c3c[nH]c4ccccc34)c2c1
Brain [1]
  Activity: 70%
[2]
  Activity: 25%
Brain [3]
  Activity: 56%
[4]
  Activity: 20%

## COc1ccc2[nH]cc(/C=N\NC(=O)c3ccoc3)c2c1
Brain [1]
  Activity: 70%
[2]
  Activity: 25%
Brain [3]
  Activity: 67%
[4]
  Activity: 20%

## COc1ccc2[nH]cc(/C=N\NC(=O)Cc3c[nH]c4ccccc34)c2c1
Brain [1]
  Activity: 60%
[2]
  Activity: 25%
Brain [3]
  Activity: 56%
[4]
  Activity: 20%

## c1ccc(-c2nnc(-c3c[nH]c4ccccc34)o2)cc1
Brain [1]
  Activity: 70%
[2]
  Activity: Non-Toxic
Brain [3]
  Activity: 56%
[4]
  Activity: Non-Toxic
[5]
  inhibition (INH): Active

## COc1ccc2[nH]cc(/C=N\NC(=O)c3snnc3C)c2c1
Brain [1]
  Activity: 60%
[2]
  Activity: 25%
Brain [3]
  Activity: 67%
[4]
  Activity: 15%

## COc1ccc(C(=O)N/N=C/c2ccc(Cl)cc2Cl)cc1OC
Brain [1]
  Activity: 70%
[2]
  Activity: 25%
Brain [3]
  Activity: 56%
[4]
  Activity: 20%

## Clc1ccc(-c2nnc(-c3ccccc3)o2)cc1
Brain [1]
  Activity: 60%
[2]
  Activity: Non-Toxic
Brain [3]
  Activity: 66%
[4]
  Activity: Non-Toxic
[5]
  inhibition (INH): Active

## COc1ccc(C(=O)N/N=C/c2ccc(Cl)cc2Cl)cc1O
Brain [1]
  Activity: 70%
[2]
  Activity: 25%
Brain [3]
  Activity: 56%
[4]
  Activity: 20%
